Assay [1] addresses T1, Lactoylglutathione lyase (Homo sapiens, UniProt Q04760). Briefly: Inhibition of human N-terminal His6-tagged GLO1 expressed in baculovirus infected sf21 cells assessed as reduction in S-D-lactoylglutathione formation at 100 uM measured for 5 mins in presence of glutathione by spectrophotometric method.
Target sequence in this assay (Q04760 2-184 limits assumed): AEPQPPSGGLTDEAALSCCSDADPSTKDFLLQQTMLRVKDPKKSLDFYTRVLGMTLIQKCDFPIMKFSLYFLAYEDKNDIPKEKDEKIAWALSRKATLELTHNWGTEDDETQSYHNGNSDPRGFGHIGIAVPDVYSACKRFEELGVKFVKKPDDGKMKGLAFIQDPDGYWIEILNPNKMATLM
Assay [2] concerns the target T1, Lactoylglutathione lyase. Briefly: Potency index, ratio of baicalein IC50 to compound IC50 for human N-terminal His6-tagged GLO1 expressed in baculovirus infected sf21 cells.
Target sequence in this assay (Q04760 2-184 limits assumed): as above
Assay [3] concerns the target T1, Lactoylglutathione lyase. Briefly: Inhibition of human N-terminal His6-tagged GLO1 expressed in baculovirus infected sf21 cells assessed as reduction in S-D-lactoylglutathione formation measured for 5 mins in presence of glutathione by spectrophotometric method.
Target sequence in this assay (Q04760 whole entry): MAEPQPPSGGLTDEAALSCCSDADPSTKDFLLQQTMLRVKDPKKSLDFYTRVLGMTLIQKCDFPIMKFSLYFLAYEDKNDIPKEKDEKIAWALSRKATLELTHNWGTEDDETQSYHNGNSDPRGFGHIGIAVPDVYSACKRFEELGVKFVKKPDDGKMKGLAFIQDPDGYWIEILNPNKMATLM
For assay [4], the system named is NCI-H522. Briefly: Antiproliferative activity against human NCI-H522 cells after 24 hrs by WST8 assay. The note with it: NCI-H522, 24 h. Format: functional, cell-based. On the technique in general: Formazan colour is commonly taken as a measure of viable cells.
In assay [5] the test system is NCI-H522. Briefly: Antiproliferative activity against human NCI-H522 cells after 72 hrs by WST8 assay. Format: functional, cell-based. The conditions noted are these: NCI-H522, 72 h.
The test system of the next assay is NCI-H460. Briefly: Antiproliferative activity against human NCI-H460 cells at 50 uM after 24 to 72 hrs by WST8 assay. Format: functional, cell-based.
Assay [6] deals with NCI-H522. Briefly: Antiproliferative activity against human NCI-H522 cells overexpressing human GLO1 at 10 to 30 uM after 72 hrs by WST8 assay. It is filed as functional, cell-based.
In assay [7] the test system is NCI-H522. Briefly: Antiproliferative activity against human NCI-H522 cells after 48 hrs by WST8 assay. It is filed as functional, cell-based. The note with it: NCI-H522, 48 h.

pEC50, pIC50: −log10 of the molar value. The source made the active and inactive calls. The calls are words filed in the database; no cut-off is given here.

With `COc1cc(/C=C/c2ccc(OC)c(OC)c2)cc(OC)c1`, the inhibition result on Lactoylglutathione lyase [1] is “Active”.

For orientation: pIC50 means the negative decadic logarithm of the IC50, by convention in mol/L. By pEC50 is commonly meant −log10 of the EC50, conventionally taken in molar units. Turning to `Oc1cc(O)cc(/C=C/c2ccc(O)c(O)c2)c1` [PICEATANNOL], the Ratio IC50 at Lactoylglutathione lyase [2] is 14. In addition, the negative logarithm of the IC50 (pIC50) at Lactoylglutathione lyase [3] was 6.12. In addition, the negative logarithm of the EC50 (pEC50) is 4.28 in the assay with NCI-H522 [4], 4.77 in the assay on NCI-H522 [5] and 4.64 in the assay on NCI-H522 [7]. The result in the assay with NCI-H460 and with NCI-H522 [6] was inactive. Besides, the inhibition result on Lactoylglutathione lyase [1] is “Active”.

The record behind these values is ChEMBL document CHEMBL3994649, “Piceatannol, a natural trans-stilbene compound, inhibits human glyoxalase I” (Bioorg Med Chem Lett, 2017).
